Measured values reported in patent US8058305B2, “Pyrrolidine derivatives as prostaglandin modulators” (Merck Serono SA, priority 2001, dated 2011).

How the values were obtained:
h-EP2 [1] = target: T1, h-EP2 (Homo sapiens, UniProt P43116); assay: Prostaglandin EP2 receptor binding assay (3H-PGE2, SPA); settings: EP2 receptor membranes, 20 nM 3H-PGE2, pH 6.0, 2 hrs at room temperature
T1 construct: expressed in transfected cells; host or cells: HEK293-EBNA
Protocol: Compounds of the invention were tested in an EP2 receptor binding assay of the following protocol. As referred to herein, the term a “standard EP2 receptor binding assay” designates the following protocol which allows the determination of the affinity of the test compounds for the EP2 receptor

h-EP2 [2] = target: T1, h-EP2; assay: EP2 total cAMP assay; assay type: cell-based; settings: HEK293-EBNA cells transfected with pCEP4-hEP2, 1 hour at 37° C.
Protocol: Compounds of the invention were tested in a total cAMP assay as follows. HEK293-EBNA cells transfected with pCEP4-hEP2 receptors were seeded in 96 well opaque plate (Costar #3917) at 4×10^4 cells per well in 100 μl of culture medium (D-MEM/F12 supplemented with 10% FBS, […] L-glutamine, and 250 μg/ml of hygromycin; all from GibcoBRL) and incubated at 37° C. After overnight incubation, the medium was removed from each well and replaced with 45 μl of assay medium consisted of phenol red free D-MEM/F-12, 0.1% BSA (GibcoBRL) and 0.1 mM3-isobutyl-1-methyl-xanthine (Sigma). After 15 minutes of incubation at 37° C., 16-16-dimethyl PGE-2 or compounds at desired concentrations in 20 μl of assay medium were added to cells and further incubated at 37° C. for 1 hour. Total cAMP (intra- and extra-cellular) was measured by using a cAMP-screen ELISA System (Tropix, #CS1000).

h-EP4 = h-EP4 (Homo sapiens, UniProt P35408); assay: EP4 receptor binding assay (3H-PGE2, SPA); settings: EP4 receptor membranes, 20 nM 3H-PGE2, pH 6.0, 2 hrs at room temperature
Protocol: Compounds of the invention were tested in an EP4 receptor binding assay of the following protocol which allows the determination of the affinity of the test compounds for the EP4 receptor.

T1 sequence (P43116 whole entry): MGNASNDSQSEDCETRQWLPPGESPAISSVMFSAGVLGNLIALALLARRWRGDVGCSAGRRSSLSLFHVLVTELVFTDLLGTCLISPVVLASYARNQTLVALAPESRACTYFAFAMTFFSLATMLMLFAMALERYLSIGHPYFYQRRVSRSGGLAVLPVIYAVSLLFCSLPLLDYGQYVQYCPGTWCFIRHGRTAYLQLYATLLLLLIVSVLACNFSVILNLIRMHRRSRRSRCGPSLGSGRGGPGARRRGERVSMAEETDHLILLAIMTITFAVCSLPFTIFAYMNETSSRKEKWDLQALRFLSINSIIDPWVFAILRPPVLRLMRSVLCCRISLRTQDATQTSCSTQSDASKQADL
Chain of h-EP4 (P35408 whole entry): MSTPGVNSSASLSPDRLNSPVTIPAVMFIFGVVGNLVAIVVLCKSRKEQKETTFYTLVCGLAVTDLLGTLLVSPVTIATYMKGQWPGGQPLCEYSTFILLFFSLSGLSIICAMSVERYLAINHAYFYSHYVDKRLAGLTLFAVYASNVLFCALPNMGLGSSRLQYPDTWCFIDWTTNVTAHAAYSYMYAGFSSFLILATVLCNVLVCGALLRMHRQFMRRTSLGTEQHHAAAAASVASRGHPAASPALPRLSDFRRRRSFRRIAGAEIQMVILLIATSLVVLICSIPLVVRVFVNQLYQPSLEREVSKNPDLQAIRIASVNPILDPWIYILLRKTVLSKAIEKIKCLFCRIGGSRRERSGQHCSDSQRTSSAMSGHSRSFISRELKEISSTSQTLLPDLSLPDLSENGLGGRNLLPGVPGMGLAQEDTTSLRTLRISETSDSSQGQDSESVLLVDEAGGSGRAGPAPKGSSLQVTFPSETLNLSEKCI

Ki (h-EP2 [1]) [nM] | EC50 (h-EP2 [2]) [nM] | Ki (h-EP4) [nM] | Molecule
11000 | 8500 | 156 | (5Z)-7-{(trans-2,3)-3-Chloro-1-[(4S and 4 R)-hydroxy-4-(1-butylcyclobutyl)butyl]pyrrolidin-2-yl}hept-5-enoic acid [Example 15]
3500 | 250 |  | CCCCC1(C(O)CCCN2CC[C@@H](Cl)[C@@H]2CCc2ccc(C(=O)O)cc2)CCC1 (stereo in doubt) [Example 11, 4-(2-{1-[4-(1-butylcyclobutyl)-4-hydroxybutyl]-3-chloropyrrolidin-2-yl}ethyl)benzoic acid]
5600 | 48 |  | CCCCC[C@@H](O)CCCN1CC[C@@H](Cl)C1C/C=C\CCCC(=O)O (stereo in doubt) [Example 1, (5Z)7-[(2R,3R)-3-Chloro-1-(4-hydroxynonyl)-pyrrolidin-2-yl]-hept-5-enoic acid]
10000 | 370 | 5 | Cc1cccc(CC(O)CCN2CCC(=O)[C@@H]2C/C=C\CCCC(=O)O)c1 (stereo partly drawn) [Example 13, (5Z)-7-{(2S)-1-[3-hydroxy-4-(3-methylphenyl)butyl]-3-oxopyrrolidin-2-yl}hept-5-enoic acid]
